Assay results published in patent US7371748B2, “Benzothiazole derivatives” (Hoffman-La Roche Inc., priority 2003, dated 2008).
Read-outs that look alike come from different tables or passages of the source.

Tests used:
[1] = molecular target: T1, human adenosine A2A receptor (Homo sapiens, UniProt P29274); experiment: [3H]-SCH-58261 binding assay, human adenosine A2A receptor; conditions: human A2A receptor recombinantly expressed in CHO cell membranes, [3H]-SCH-58261 1 nM, Ki from IC50 by Cheng-Prussoff equation
T1 construct: expressed in transfected cells; host or cells: CHO cells, Semliki Forest virus expression system; membrane preparation
Description: Human Adenosine A2A Receptor
The human adenosine A2A receptor was recombinantly expressed in chinese hamster ovary (CHO) cells using the semliki forest virus expression system. Cells were harvested, washed twice by centrifugation, homogenized and again washed by centrifugation. The final washed membrane pellet was suspended in a Tris (50 mM) buffer containing 120 mM NaCl, 5 mM KCl, 2 mM CaCl2 and 10 mM MgCl2 (pH 7.4) (buffer A). The [^3H]-SCH-58261 (Dionisotti et al., […], Br J Pharmacol 121, 353; 1 nM) binding assay was carried out in 96-well plates in the presence of 2.5 μg of membrane protein, 0.5 mg of Ysi-poly-1-lysine SPA beads and 0.1 U adenosine deaminase in a final volume of 200 μl of buffer A. Non-specific binding was defined using xanthine amine congener (XAC; 2 μM). Compounds were tested at 10 concentrations from 10 μM-0.3 nM. All assays were conducted in duplicate and repeated at least two times. Assay plates were incubated for 1 hour at room temperature before centrifugation and then bound ligand determined using a Packard Topcount scintillation counter. IC50 values were calculated using a non-linear curve fitting program and Ki values calculated using the Cheng-Prussoff equation.

[2] = read-out: Ha2 (pKi) (converted)

T1 sequence (P29274 whole entry): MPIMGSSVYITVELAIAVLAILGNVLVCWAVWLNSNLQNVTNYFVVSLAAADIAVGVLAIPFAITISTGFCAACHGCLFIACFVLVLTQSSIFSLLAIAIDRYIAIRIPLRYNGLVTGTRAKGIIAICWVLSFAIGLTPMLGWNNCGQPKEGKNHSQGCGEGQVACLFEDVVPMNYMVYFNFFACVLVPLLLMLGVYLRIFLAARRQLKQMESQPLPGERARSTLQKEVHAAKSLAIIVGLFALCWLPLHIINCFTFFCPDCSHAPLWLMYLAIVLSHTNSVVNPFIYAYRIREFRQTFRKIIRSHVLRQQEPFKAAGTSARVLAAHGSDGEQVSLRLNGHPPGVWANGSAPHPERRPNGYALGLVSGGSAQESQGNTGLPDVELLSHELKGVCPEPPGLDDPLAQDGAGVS

SMILES	Ki [1, 2]	melting point	Ki ([1]; Ha2 (pKi))
COc1ccc(C2COCCOC2)c2sc(NC(=O)c3ccncc3)nc12 [Example 15, N-(7-[1,4]Dioxepan-6-yl-4-methoxy-benzothiazol-2-yl)-isonicotinamide]	2 nM	–	–
COc1ccc(C2CCOCC2)c2sc(NC(=O)N(C)[C@H]3CC[C@@](C)(O)CC3)nc12 [Example 23, 1-(4-cis-Hydroxy-4-methyl-cyclohexyl)-3-[4-methoxy-7-(tetrahydro-pyran-4-yl)-benzothiazol-2-yl]-1-methyl-urea]	2 nM	211 to 213 °C	–
COc1ccc(C2CCOCC2)c2sc(NC(=O)CC3CCOCC3)nc12 [Example 33, N-[4-Methoxy-7-(tetrahydro-pyran-4-yl)-benzothiazol-2-yl]-2-(tetrahydro-pyran-4-yl)-acetamide]	1.58 nM	218 to 220 °C	–
COc1ccc(C2COCCOC2)c2sc(NC(=O)c3ccc(C)s3)nc12 [Example 8, 5-Methyl-thiophene-2-carboxylic acid (7-[1,4]dioxepan-6-yl-4-methoxy-benzothiazol-2-yl)-amide]	1 nM	–	–
COc1ccc(C2CCOCC2)c2sc(NC(=O)N(C)[C@H]3CC[C@H](O)CC3)nc12 [Example 21, trans-1-(4-Hydroxy-cyclohexyl)-3-[4-methoxy-7-(tetrahydro-pyran-4-yl)-benzothiazol-2-yl]-1-methyl-urea]	2.51 nM	160 °C	–
COc1ccc(C2COCCOC2)c2sc(NC(=O)c3ccnc(CN4CCCC4)c3)nc12 [Example 47, N-(7-[1,4]Dioxepan-6-yl-4-methoxy-benzothiazol-2-yl)-2-pyrrolidin-1-ylmethyl-isonicotinamide]	–	108 to 111 °C	–
COc1ccc(C2CCOCC2)c2sc(NC(=O)N3CCC4(CC3)OCCO4)nc12 [Example 29, 1,4-Dioxa-8-aza-spiro[4.5]decane-8-carboxylic acid [4-methoxy-7-(tetrahydro-pyran-4-yl)-benzothiazol-2-yl]-amide]	–	–	1.58 nM
COc1ccc(C2CCOCC2)c2sc(NC(=O)N3CCC(CO)CC3)nc12 [Example 52, 4-Hydroxymethyl-piperidine-1-carboxylic acid [4-methoxy-7-(tetrahydro-pyran-4-yl)-benzothiazol-2-yl]-amide]	1 nM	202 to 203.5 °C	–
COc1ccc(C2COCCOC2)c2sc(NC(=O)c3cnn(C)c3)nc12 [Example 43, 1-Methyl-1H-pyrazole-4-carboxylic acid (7-[1,4]dioxepan-6-yl-4-methoxy-benzothiazol-2-yl)-amide]	0.398 nM	–	–
COc1ccc(C(=O)Nc2nc3c(OC)ccc(C4COCCOC4)c3s2)cc1 [Example 9, N-(7-[1,4]Dioxepan-6-yl-4-methoxy-benzothiazol-2-yl)-4-methoxy-benzamide]	2 nM	–	–
COc1ccc(C2CCOCC2)c2sc(NC(=O)N(C)C3CCOCC3)nc12 [Example 24, 3-[4-Methoxy-7-(tetrahydro-pyran-4-yl)-benzothiazol-2-yl]-1-methyl-1-(tetrahydro-pyran-4-yl)-urea]	3.16 nM	237 to 238 °C	–
COc1ccc(C2CCOCC2)c2sc(NC(=O)[C@H]3CCCO3)nc12 [Example 51, (R)-Tetrahydro-furan-2-carboxylic acid [4-methoxy-7-(tetrahydro-pyran-4-yl)-benzothiazol-2-yl]-amide]	–	158 to 161 °C	–
COc1ccc(C2CCOCC2)c2sc(NC(=O)c3ccnc(CN4CCOCC4)c3)nc12 [Example 34, N-[4-Methoxy-7-(tetrahydro-pyran-4-yl)-benzothiazol-2-yl]-2-morpholin-4-ylmethyl-isonicotinamide]	2 nM	199 to 201 °C	–
COc1ccc(C2CCOCC2)c2sc(NC(=O)N3CC4CCC3CC4)nc12 [Example 32, 2-Aza-bicyclo[2.2.2]octane-2-carboxylic acid [4-methoxy-7-(tetrahydro-pyran-4-yl)-benzothiazol-2-yl]-amide]	2 nM	237 to 239 °C	–
COc1ccc(C2COCCOC2)c2sc(NC(=O)c3ccnc(N4CCCC4)c3)nc12 [Example 46, N-(7-[1,4]Dioxepan-6-yl-4-methoxy-benzothiazol-2-yl)-2-pyrrolidin-1-yl-isonicotinamide]	2.51 nM	–	–
COc1ccc(C2CCOCC2)c2sc(NC(=O)C[C@H]3CC[C@H](O)CC3)nc12 [Example 50, (trans)-2-(4-Hydroxy-cyclohexyl)-N-[4-methoxy-7-(tetrahydro-pyran-4-yl)-benzothiazol-2-yl]-acetamide]	2.51 nM	120 to 145 °C	–

SMILES	Ki [1, 2]	melting point	Ki ([1]; Ha2 (pKi))
COc1ccc(C2CCOCC2)c2sc(NC(=O)N(C)C3CC4CCC3O4)nc12 (single isomer, unassigned) [Example 56, (exo)-(−)-3-[4-Methoxy-7-(tetrahydro-pyran-4-yl]-benzothiazol-2-yl)-1-methyl-1-(7-oxa-bicyclo[2.2.1]hept-2-yl)-urea]	3.16 nM	155 to 190 °C	–
COc1ccc(C2CCOCC2)c2sc(NC(=O)N3CCC(C)(O)CC3)nc12 [Example 30, 4-Hydroxy-4-methyl-piperidine-1-carboxylic acid [4-methoxy-7-(tetrahydro-pyran-4-yl)-benzothiazol-2-yl]-amide]	1.26 nM	90 to 95 °C	–
COc1ccc(C2CCOCC2)c2sc(NC(=O)N(C)C3CC4CCC3O4)nc12 (racemic) [Example 26, (rac)-(exo)-3-[4-Methoxy-7-(tetrahydro-pyran-4-yl)-benzothiazol-2-yl]-1-methyl-1-(7-oxa-bicyclo[2.2.1]hept-2-yl)-urea]	1 nM	197 to 200 °C	–
CCC(=O)N(C)Cc1ccc(C(=O)Nc2nc3c(OC)ccc(C4COCCOC4)c3s2)cc1 [Example 44, N-(7-[1,4]Dioxepan-6-yl-4-methoxy-benzothiazol-2-yl)-4-[(methyl-propionyl-amino)-methyl]-benzamide]	2.51 nM	–	–
COc1ccc(C2COCCOC2)c2sc(NC(=O)c3ccc(CCl)cc3)nc12 [Example 39, 4-Chloromethyl-N-(7-[1,4]dioxepan-6-yl-4-methoxy-benzothiazol-2-yl)-benzamide]	1.58 nM	–	–
COc1ccc(C2CCOCC2)c2sc(NC(=O)N(C)C3CCN(C)CC3)nc12 [Example 20, 3-[4-Methoxy-7-(tetrahydro-pyran-4-yl)-benzothiazol-2-yl]-1-methyl-1-(1-methyl-piperidin-4-yl)-urea]	2.51 nM	152 to 155 °C	–
COc1ccc(C2CCOCC2)c2sc(NC(=O)N(C)C3CCN(N(C)C)CC3)nc12 [Example 53, 1-(1-Dimethylamino-piperidin-4-yl)-3-[4-methoxy-7-(tetrahydro-pyran-4-yl)-benzothiazol-2-yl]-1-methyl-urea]	–	167 to 170 °C	–
COc1ccc(C2CCOCC2)c2sc(NC(=O)N(C)CC3CCOC3)nc12 (stereo not drawn) [Example 25, 3-[4-Methoxy-7-(tetrahydro-pyran-4-yl)-benzothiazol-2-yl]-1-methyl-1-(tetrahydro-furan-3-ylmethyl)-urea]	–	185 to 186 °C	–
COc1ccc(C2CCOCC2)c2sc(NC(=O)N(C)[C@H]3CC[C@@H](O)CC3)nc12 [Example 22, cis-1-(4-Hydroxy-cyclohexyl)-3-[4-methoxy-7-(tetrahydro-pyran-4-yl)-benzothiazol-2-yl]-1-methyl-urea]	2.51 nM	191 to 193 °C	–
COc1ccc(C2CCOCC2)c2sc(NC(=O)CC3CCCO3)nc12 (stereo not drawn) [Example 54, N-[4-Methoxy-7-(tetrahydro-pyran-4-yl)-benzothiazol-2-yl]-2-(tetrahydro-furan-2-yl)-acetamide]	–	170 to 174 °C	–
COc1ccc(C2CCOCC2)c2sc(NC(=O)N3C[C@@H]4C[C@H]3CO4)nc12 [Example 31, (1S,4S)-2-Oxa-5-aza-bicyclo[2.2.1]heptane-5-carboxylic acid [4-methoxy-7-(tetrahydro-pyran-4-yl)-benzothiazol-2-yl]-amide]	1.26 nM	193 to 197 °C	–
COc1ccc(C2COCCOC2)c2sc(NC(=O)c3ccc(F)cc3)nc12 [Example 10, N-(7-[1,4]Dioxepan-6-yl-4-methoxy-benzothiazol-2-yl)-4-fluoro-benzamide]	1.26 nM	–	–
COc1ccc(C2COCCOC2)c2sc(NC(=O)c3cncn3C)nc12 [Example 14, 3-Methyl-3H-imidazole-4-carboxylic acid (7-[1,4]dioxepan-6-yl-4-methoxy-benzothiazol-2-yl)-amide]	1 nM	–	–
COc1ccc(C2COCCOC2)c2sc(NC(=O)C3CCCCC3)nc12 [Example 11, Cydohexanecarboxylic acid (7-[1,4]dioxepan-6-yl-4-methoxy-benzothiazol-2-yl)-amide]	2.51 nM	–	–
COCCN(C)Cc1cc(C(=O)Nc2nc3c(OC)ccc(C4COCCOC4)c3s2)ccn1 [Example 48, N-(7-[1,4]Dioxepan-6-yl-4-methoxy-benzothiazol-2-yl)-2-{[(2-methoxy-ethyl)-methyl-amino]-methyl}-isonicotinamide]	–	100 to 107 °C	–
